Assay results taken from BindingDB's records for doi:10.1021/acschembio.6b00827 (Universitätsklinikum Frankfurt, 2017).

Experiments:
[1] = target: T1, Protein kinase C iota type (Homo sapiens, UniProt P41743); test: PKC AlphaScreen Assay; conditions: pH 7.4
T1 sequence (P41743 whole entry): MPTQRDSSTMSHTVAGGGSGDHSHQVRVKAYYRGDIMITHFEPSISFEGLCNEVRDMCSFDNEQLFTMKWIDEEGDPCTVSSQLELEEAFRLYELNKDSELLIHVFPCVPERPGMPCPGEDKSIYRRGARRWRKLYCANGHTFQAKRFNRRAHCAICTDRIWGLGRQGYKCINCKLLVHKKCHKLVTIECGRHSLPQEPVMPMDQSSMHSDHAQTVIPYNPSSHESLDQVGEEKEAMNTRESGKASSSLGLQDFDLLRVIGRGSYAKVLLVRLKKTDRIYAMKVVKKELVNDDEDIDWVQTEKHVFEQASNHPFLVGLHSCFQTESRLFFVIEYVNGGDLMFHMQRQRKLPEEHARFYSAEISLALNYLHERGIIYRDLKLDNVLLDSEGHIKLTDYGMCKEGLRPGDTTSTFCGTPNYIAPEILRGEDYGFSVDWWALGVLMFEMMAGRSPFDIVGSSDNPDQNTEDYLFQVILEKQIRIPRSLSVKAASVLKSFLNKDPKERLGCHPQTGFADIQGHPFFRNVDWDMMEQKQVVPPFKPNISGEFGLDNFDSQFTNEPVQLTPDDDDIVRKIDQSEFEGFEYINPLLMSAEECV
Method: (§1) Interaction assays were performed using the Alpha-Screen (amplified luminescent proximity homogeneous assay) technology, as described previously [Lopez-Garcia et al., Chem. Biol., 18:1463-1473; Zhang et al., Chem. Biol., 21:754-765]. The bead-based assay allows the detection of biomolecular interactions and the effect of small compounds. Briefly, the Alpha-Screen assay was performed in a finalvolume of 25 μL in white 384-well microtiter plates (Greiner Bio-One) with His-PKCι-CD (40 nM) and biotin-pseudosubstrate (80 nM) or His-PKCι-CD (15 nM) and biotin-ROCKtide (100 nM) in a buffer containing 50 mM Tris-HCl (pH 7.4), 100 mM NaCl, 0.01% (v/v) Tween 20, 0.1% (w/v) BSA, 2 mM dithiothreitol (for the PKCι-Rocktide interaction) or 5 mM dithiothreitol (for the PKCι-pseudosubstrate interaction), and the corresponding concentration of the compound. Five microliters of beads at a concentration of 20 μg/mL was added to the mixture (nickel chelate-coated acceptor beads and streptavidin-coated donor beads), and after incubation for 90 min, Alpha-Screen counts were obtained in an EnVision Multiplate reader.

[2] = target: T2, Protein kinase C zeta type (Homo sapiens, UniProt Q05513); test: PKC AlphaScreen Assay; conditions: pH 7.4
T2 sequence (Q05513 whole entry): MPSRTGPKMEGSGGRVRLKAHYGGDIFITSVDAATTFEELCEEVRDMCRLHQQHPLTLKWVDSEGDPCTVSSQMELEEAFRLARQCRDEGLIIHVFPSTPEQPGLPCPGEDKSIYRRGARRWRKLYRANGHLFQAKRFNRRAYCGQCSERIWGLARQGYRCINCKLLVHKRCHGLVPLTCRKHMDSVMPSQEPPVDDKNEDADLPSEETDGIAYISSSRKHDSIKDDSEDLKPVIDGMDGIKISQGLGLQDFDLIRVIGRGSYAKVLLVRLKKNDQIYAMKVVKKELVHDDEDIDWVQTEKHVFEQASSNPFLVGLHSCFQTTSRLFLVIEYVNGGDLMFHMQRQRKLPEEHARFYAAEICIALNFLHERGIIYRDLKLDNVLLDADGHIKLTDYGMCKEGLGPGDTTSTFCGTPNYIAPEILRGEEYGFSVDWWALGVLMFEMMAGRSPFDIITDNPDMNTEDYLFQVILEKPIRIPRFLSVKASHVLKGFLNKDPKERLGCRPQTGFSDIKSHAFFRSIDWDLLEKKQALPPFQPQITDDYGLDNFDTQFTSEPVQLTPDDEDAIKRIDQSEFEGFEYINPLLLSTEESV
Method: as §1

Row | IC50 [1] | IC50 [2] | SMILES
1 | 36.4 µM | 17.8 µM | CCOC(=O)C1=C(O)C(=O)N(c2nc3ccc(Cl)cc3s2)C1c1cccs1 (configuration not stated) [PS267]
2 | 43.2 µM | 20.5 µM | CCOC(=O)C1=C(O)C(=O)N(c2nc3ccc(Cl)cc3[nH]2)C1c1ccc(Cl)cc1 (configuration not stated) [PS212]
3 | – | 44.1 µM | CCOC(=O)C1=C(O)C(=O)N(c2nc3ccc(Cl)cc3[nH]2)C1c1ccccc1 (configuration not stated) [PS312]
4 | 16.9 µM | 18.5 µM | CCOC(=O)C1=C(O)C(=O)N(c2nc3ccc(C)cc3s2)C1c1ccc(-c2ccc(Cl)cc2)o1 (configuration not stated) [PS432]
